{"source": "patent US4749706A", "about": "(priority 1986, dated 1988)", "key": {"[1]": {"assay": "induced Straub tail method (antagonist activity)", "details": "for ED50: read-out: Antagonism ED50, Straub Tail"}, "[2]": {"assay": "writhing assay (analgesia)", "type": "in vivo", "details": "compared with morphine", "description": "(§1) Analgesic activity was measured using the tail-flick assay of D'Amour, F. D., et al, J. Pharmacol. Exper. (1941) 72: 74, or by the writhing assay described by Blumberg, H., et al, Proc. Soc. Exp. Biol. Med. (1965) 118: 763. The antagonist activity, considered a measure of nonaddictiveness, was measured by the opiate receptor assay of Pert, C., et al, Mol. Pharmacol. (1974) 10: 868. Antagonist activity was also measured using the induced Straub tail method as described by De Graw, J., et al, J. Med Chem (1978) 21: 415; and Blumberg, H., et al, Advances in Chemical Psychopharmacology, Vol. 8, M. Braudy, et al, ed. Raven Press, New York, N.Y. (1973), 33-43. A direct and simple assay measuring physical dependence is the mouse jump test described by Saelens, J., et al, Arch Int Pharmacodyn (1971) 190: 213."}, "[3]": {"details": "as disclosed in U.S. Pat. No. 4,218,454; cited from earlier work"}, "[4]": {"details": "in vivo"}, "opiate receptor": {"molecular_target": "T1, opiate receptor (Rattus norvegicus, UniProt P33535)", "T1 construct": "from tissue", "T1 sequence (P33535 whole entry)": "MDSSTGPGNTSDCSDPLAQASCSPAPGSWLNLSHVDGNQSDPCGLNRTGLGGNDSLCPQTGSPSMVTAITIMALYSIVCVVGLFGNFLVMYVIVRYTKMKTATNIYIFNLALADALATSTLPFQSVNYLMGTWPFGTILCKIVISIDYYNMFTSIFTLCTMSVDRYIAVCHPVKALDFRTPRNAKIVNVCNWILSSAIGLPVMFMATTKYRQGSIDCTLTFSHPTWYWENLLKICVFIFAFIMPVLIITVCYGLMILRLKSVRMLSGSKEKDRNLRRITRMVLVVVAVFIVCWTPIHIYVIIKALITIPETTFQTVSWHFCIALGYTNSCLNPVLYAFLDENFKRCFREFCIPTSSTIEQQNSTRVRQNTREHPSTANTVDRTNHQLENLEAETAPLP", "assay": "biochemical", "type": "binding"}, "[5]": {"assay": "mouse jump test (physical dependence)", "type": "in vivo", "details": "after 100 mg/kg naloxone on day 4; 30 min", "description": "as §1\nPhysical dependence, a much more direct measure of non-addictive properties than antagonist activity, was evaluated using the mouse jump test. Mice are injected intraperitoneally 5 times on day 1 with increasing doses of test compound ranging from 8-100 mg/kg body weight. On days 2 and 3 the mice are given 100 mg/kg 4 times. On day 4 all mice receive 100 mg/kg of the antagonist naloxone in a single dose. The mice are then caged for 30 min, and a record is made of the number jumping during this time."}, "[6]": {"details": "+NaCl, read-out: Opiate Receptor Inhibition 1C50"}, "[7]": {"details": "-NaCl, read-out: Opiate Receptor Inhibition 1C50"}}, "note": "pIC50: −log10 of the molar value. Values joined by “and” are separate entries in the source; they are usually repeats but may differ in a detail not shown here. Equal values may be shown once. Read-outs that look alike come from different tables or passages of the source."}
{"smiles": "CC(C1CC1)N1CC[C@]23c4c5ccc(O)c4O[C@H]2[C@@H](O)C=C[C@H]3[C@H]1C5", "note": "(mixture of isomers) [N-α-Methylcyclopropylmethylnormorphine]", "values": [{"measurement": "antagonist potency relative to nalorphine", "setting": "[1]; in vivo", "result": "about one-fourth as potent as nalorphine"}, {"measurement": "ED50", "setting": "[1]", "result": 4.5, "unit": "µmol/kg"}, {"measurement": "potency relative to morphine in the writhing assay", "setting": "[2]", "result": "more than twice as potent"}, {"measurement": "addiction liability", "setting": "[3]", "result": "little or no addiction liability"}, {"measurement": "potency relative to morphine in the tail flick assay", "setting": "[4]; sc", "result": "about 85%"}, {"measurement": "pIC50", "setting": "opiate receptor; [6]", "result": 8.22}, {"measurement": "pIC50", "setting": "opiate receptor; [7]", "result": 8.52}]}
{"smiles": "CC(C1CC1)N1CC[C@]23c4c5ccc(O)c4O[C@H]2[C@@H](O)C=C[C@H]3[C@H]1C5", "note": "(single isomer, unassigned; diastereomer a) [N--α-methylcyclopropyl-methyl normorphine (A)] [N-methylcyclopropylmethyl normorphine (diastereomer A)]", "values": [{"measurement": "Antagonism ED50, Tail Flick", "setting": "in vivo", "result": "> 213", "unit": "µmol/kg"}, {"measurement": "activity relative to the diastereomeric mixture and to diastereomer B", "setting": "[4]", "result": "much higher activity"}, {"measurement": "oral activity compared with subcutaneous morphine in the tail flick assay", "setting": "[4]", "result": "approximated an equivalent dose of morphine administered subcutaneously"}, {"measurement": "duration of effectiveness", "setting": "[4]; po", "result": 4, "unit": "h"}, {"measurement": "onset of action", "setting": "[4]; po", "result": "5 to 10", "unit": "min"}, {"measurement": "times as potent as morphine in tail flick analgesia, oral", "setting": "[4]; po", "result": 6.2, "unit": "times"}, {"measurement": "activity of lower melting diastereomer A relative to higher melting form", "setting": "[4]; sc", "result": "about 25 times"}, {"measurement": "times as potent as morphine in the tail flick assay", "setting": "[4]; sc", "result": 5.2, "unit": "times"}, {"measurement": "times the affinity of N-sec-butylnormorphine in the opiate assay", "setting": "opiate receptor", "result": "about 122 times"}, {"measurement": "times the affinity of morphine in the opiate assay", "setting": "opiate receptor", "result": "over 43 times"}, {"measurement": "times more tightly bound than the higher melting form", "setting": "opiate receptor; competitive binding against 3H-dihydromorphine, A versus B", "result": 30, "unit": "times"}]}
{"smiles": "CC(C1CC1)N1CC[C@]23c4c5ccc(O)c4O[C@H]2[C@@H](O)C=C[C@H]3[C@H]1C5", "note": "(single isomer, unassigned; diastereomer a) [N-methylcyclopropylmethyl normorphine (diastereomer A)]", "values": [{"measurement": "pIC50", "setting": "opiate receptor; [7]", "result": 9.64}]}
{"smiles": "CC(C1CC1)N1CC[C@]23c4c5ccc(O)c4O[C@H]2[C@@H](O)C=C[C@H]3[C@H]1C5", "note": "(single isomer, unassigned; diastereomer b) [N--α-methylcyclopropyl-methyl normorphine (B)] [N-methylcyclopropylmethyl normorphine (diastereomer B)]", "values": [{"measurement": "potency relative to morphine in the tail flick assay (in words)", "setting": "[4]; sc", "result": "only one-fifth as potent as morphine"}]}
{"smiles": "CC(C1CC1)N1CC[C@]23c4c5ccc(O)c4O[C@H]2[C@@H](O)C=C[C@H]3[C@H]1C5", "note": "(single isomer, unassigned; diastereomer b) [N-methylcyclopropylmethyl normorphine (diastereomer B)]", "values": [{"measurement": "pIC50", "setting": "opiate receptor; [7]", "result": 8.15}]}
{"smiles": "CC[C@@H](C)N1CC[C@]23c4c5ccc(O)c4O[C@H]2[C@@H](O)C=C[C@H]3[C@H]1C5", "note": "[N--sec-butyl normorphine (R), reference compound]", "values": [{"measurement": "ED50", "setting": "[1]", "result": 16.2, "unit": "µmol/kg"}, {"measurement": "addiction liability", "setting": "[3]", "result": "little or no addiction liability"}, {"measurement": "pIC50", "setting": "opiate receptor; [6]", "result": 6.96}, {"measurement": "pIC50", "setting": "opiate receptor; [7]", "result": 7.22}]}
{"smiles": "CC[C@H](C)N1CC[C@]23c4c5ccc(O)c4O[C@H]2[C@@H](O)C=C[C@H]3[C@H]1C5", "note": "[N--sec-butyl normorphine (S), reference compound]", "values": [{"measurement": "ED50", "setting": "[1]", "result": 7.4, "unit": "µmol/kg"}, {"measurement": "addiction liability", "setting": "[3]", "result": "little or no addiction liability"}, {"measurement": "pIC50", "setting": "opiate receptor; [6]", "result": 7.21}, {"measurement": "pIC50", "setting": "opiate receptor; [7]", "result": 7.55}]}
{"smiles": "CN1CC[C@]23c4c5ccc(O)c4O[C@H]2[C@@H](O)C=C[C@H]3[C@H]1C5", "note": "[morphine]", "values": [{"measurement": "Antagonism ED50, Tail Flick", "setting": "reversal of analgesia induced by morphine in the tail flick assay", "result": 2, "unit": "µmol/kg"}, {"measurement": "Antagonism ED50, Straub Tail", "setting": "[1]; Straub tail method", "result": 1, "unit": "µmol/kg"}, {"measurement": "time after which activity declines substantially", "setting": "[4]", "result": 3, "unit": "h"}, {"measurement": "number of mice jumping", "setting": "[5]", "result": "10/10"}]}
{"smiles": "C=CCN1CC[C@]23c4c5ccc(O)c4O[C@H]2[C@@H](O)C=C[C@H]3[C@H]1C5", "note": "[nalorphine, reference compound]", "values": [{"measurement": "Antagonism ED50, Tail Flick", "setting": "in vivo", "result": 2.04, "unit": "µmol/kg"}, {"measurement": "addiction liability", "setting": "[3]", "result": "little or no addiction liability"}, {"measurement": "pIC50", "setting": "opiate receptor; Opiate Receptor Inhibition 1C50", "result": "8.70 and 8.22"}]}
